From patent US12161620B2, “Devices and methods for facilitating and controlling use of a medication” (priority 2013, dated 2024)
Where two headings read alike, the source gives them in different places.

How the values were obtained:
[1] = cited from earlier work
[2] = pungency; cited from earlier work
[3] = PubChem; cited from earlier work
[4] = cited from earlier work; remark: listed apart in the source
[5] = Taste of denatonium saccharide solution before and after activated carbon treatment (Example 11); settings: 90 ppm in water
Experimental: Example 11. In a lab evaluation, 90 ppm denatonium saccharide in water was prepared. To 40 mL samples were added 100 mg and […], respectively, of powdered activated carbon Ecosorb EC-947. The samples were stirred for about 2 days to equilibrate.

[6] = taste detection; cited from earlier work
[7] = Taste of sucrose octaacetate solution before and after lime treatment (Example 10); settings: 60 ppm in water
[8] = in vivo; cited from earlier work

Structure (SMILES): CCN(Cc1cccc(S(=O)(=O)O)c1)c1ccc(C(=C2C=CC(=[N+](CC)Cc3cccc(S(=O)(=O)O)c3)C=C2)c2ccccc2S(=O)(=O)[O-])cc1 [Brilliant Blue]
- solubility in water [1]: water-soluble

Structure (SMILES): COc1cc(CNC(=O)CCCC/C=C/C(C)C)ccc1O [Capsaicin, capsaicin]
- threshold of effect [2]: about 0.02 ppm
- LogP [3]: 3.6
- solubility in alcohol [1]: soluble in alcohol
- water solubility [1]: ~10 ppm

Structure (SMILES): CN(C)c1ccc(C(=C2C=CC(=[N+](C)C)C=C2)c2ccc(N(C)C)cc2)cc1.[Cl-] [Gentian Violet]
- solubility in water [1]: soluble in water

Structure (SMILES): O=C(/C=C/C=C/c1ccc2c(c1)OCO2)N1CCCCC1 [Piperine, piperine]
- threshold of effect [2]: about 1.35 ppm
- LogP [3]: 3.5
- solubility in alcohol [1]: soluble in alcohol
- water solubility [1]: 40 ppm

Structure (SMILES): CC(=O)OCC(COC(C)=O)OC(C)=O [Triacetin, triacetin]
- half-life ([4]; pH 9): < 24 h
- pH around which stable ([4]; stable only around this pH): ~4

Structure (SMILES): CC[N+](CC)(CC(=O)Nc1c(C)cccc1C)Cc1ccccc1.O=C1[N-]S(=O)(=O)c2ccccc21 [denatonium saccharide]
- taste of untreated sample [5]: intensely bitter
- duration of taste after administration ([5]; untreated, about 0.1 mL on the tongue): at least two hours

Structure (SMILES): CC[N+](CC)(CC(=O)Nc1c(C)cccc1C)Cc1ccccc1 [denatonium]
- level at which detectable [6]: 0.01 ppm

Structure (SMILES): CC(=O)OC[C@H]1O[C@@](COC(C)=O)(O[C@H]2O[C@H](COC(C)=O)[C@@H](OC(C)=O)[C@H](OC(C)=O)[C@H]2OC(C)=O)[C@@H](OC(C)=O)[C@@H]1OC(C)=O [sucrose octaacetate]
- taste of untreated solution [7]: intensely bitter
- level at which detectable [6]: 10 ppm
- LogP [3]: −0.9
- solubility in alcohol [1]: very soluble in alcohols
- water solubility [1]: 900 ppm
- water solubility ([1]; listed as Sucrose octaacetate): about 900 ppm
- dose that is not lethal [8]: 5000 mg/kg
